Laboratory results taken from ChEMBL document CHEMBL1201862, “PubChem BioAssay data set” (2004).
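Protocol summary: plate cells (96-well), add compound at 5 concentrations, incubate 48 h, interpolate endpoints linearly. GI50 = concentration required for 50% inhibition of growth.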 Activity calls are given as the source filed them. Rule as the data show it: active = GI50 up to about 1.1 µM and inactive = higher.

Key:
Assay in all cases: NCI anticancer screen, dose series, 48 h
[1] = system: MCF7
[2] = system: Malme-3M
[3] = system: SK-MEL-28
[4] = system: UACC-257
[5] = system: A498
[6] = system: HOP-92
[7] = system: 786-0
[8] = system: OVCAR-4
[9] = system: COLO 205
[10] = system: MDA-MB-435
[11] = system: MDA-MB-231
[12] = system: NCI-H226
[13] = system: SN12C
[14] = system: HT-29
[15] = system: SF-268
[16] = system: ACHN
[17] = system: TK-10
[18] = system: OVCAR-5
[19] = system: K562

Measured: GI50

COc1ccc(C2=C(N)c3ccccc3C2=O)cc1
inactive: [1] > 100 µM | [2] > 100 µM | [3] > 100 µM | [4] > 100 µM | [5] 81.8 µM | [6] 27.9 µM | [7] 52.1 µM | [8] 96.4 µM | [9] > 100 µM | [10] > 100 µM | [11] 32.5 µM | [12] 45.6 µM | [13] > 100 µM | [14] > 100 µM | [15] 33.7 µM | [16] 63.2 µM | [17] 45.1 µM | [18] > 100 µM

Cn1c(-c2ccccc2)c2cc3nc4ccccc4nc3cc2c1-c1ccccc1
inactive: [1] 12.1 µM | [2] 30.1 µM | [19] 17.3 µM | [3] 34.9 µM | [4] 56.2 µM | [5] 19.6 µM | [6] 25.3 µM | [8] 30 µM | [9] 2.26 µM | [10] 5.79 µM | [11] 24.2 µM | [13] 13.3 µM | [14] 17.8 µM | [15] 19 µM | [16] 17.7 µM | [17] 41 µM | [18] 52.2 µM

CCOP(=O)(OCC)/C(C#N)=C/c1cn(C)cn1
inactive: [1] > 100 µM | [2] > 100 µM | [19] > 100 µM | [3] > 100 µM | [4] > 100 µM | [5] > 100 µM | [6] > 100 µM | [8] > 100 µM | [9] > 100 µM | [10] > 100 µM | [11] > 100 µM | [12] > 100 µM | [13] > 100 µM | [14] > 100 µM | [15] > 100 µM | [16] > 100 µM | [17] > 100 µM | [18] > 100 µM

O/N=C1\CC2(N3CCOCC3)CCC1(Cc1ccccc1)CC2
inactive: [1] > 100 µM | [2] 66.4 µM | [19] > 100 µM | [3] > 100 µM | [4] > 100 µM | [5] 32 µM | [6] 28.6 µM | [7] 19 µM | [8] 32.5 µM | [9] > 100 µM | [10] > 100 µM | [11] 26.2 µM | [12] 35 µM | [13] > 100 µM | [14] > 100 µM | [15] 30.9 µM | [16] 22.3 µM | [18] > 100 µM

CC(C)(C)OC(=O)[C@@H]1CCC(=O)N1C1(c2ccccc2)c2ccccc2-c2ccccc21
inactive: [1] 67.6 µM | [2] 33.3 µM | [19] 41 µM | [3] 28.6 µM | [4] 77.1 µM | [5] 64.7 µM | [6] 26.3 µM | [7] 38.8 µM | [8] 28.6 µM | [9] 21.4 µM | [10] 30.1 µM | [11] 16.4 µM | [12] > 100 µM | [13] 39.3 µM | [14] 23.7 µM | [15] > 100 µM | [16] 26.9 µM | [17] > 100 µM | [18] 93.1 µM

N#Cc1c(N)oc(-c2cccc([N+](=O)[O-])c2)c1C#N
inactive: [1] 53.3 µM | [2] 24.4 µM | [3] 19.5 µM | [4] 21.8 µM | [5] 21 µM | [6] 17.4 µM | [7] 27.7 µM | [9] 20.9 µM | [10] 31.2 µM | [11] 37.1 µM | [12] 43.2 µM | [13] 38.6 µM | [14] 20 µM | [15] 31.4 µM | [16] 19.1 µM | [17] 22.1 µM | [18] 82.4 µM

COc1cc(OC)c(C2(c3c(OC(C)C)c(=O)c3=O)SCCCS2)cc1OC
inactive: [1] > 100 µM | [2] > 100 µM | [19] > 100 µM | [3] > 100 µM | [4] > 100 µM | [5] > 100 µM | [6] > 100 µM | [7] > 100 µM | [8] > 100 µM | [9] > 100 µM | [10] > 100 µM | [11] > 100 µM | [12] > 100 µM | [13] > 100 µM | [14] > 100 µM | [15] > 100 µM | [16] > 100 µM | [17] > 100 µM | [18] > 100 µM

Cc1c(-c2ccccc2)c(C#N)c2nnn(-c3ccc([N+](=O)[O-])cc3)c(=O)n12
inactive: [1] 16.2 µM | [2] 24.2 µM | [19] 20.5 µM | [3] 32.6 µM | [4] > 100 µM | [5] 19.9 µM | [6] 16.5 µM | [7] 5.14 µM | [8] 10.4 µM | [9] 7.35 µM | [10] 24.8 µM | [11] 8.15 µM | [12] 13.2 µM | [13] 22.4 µM | [14] 8.99 µM | [15] 12.7 µM | [16] 22.2 µM | [17] 28.1 µM | [18] 27.4 µM

COc1cc(C(=O)Oc2ccc3c(c2)OCO3)cc(OC)c1OC
inactive: [1] > 100 µM | [2] > 100 µM | [3] > 100 µM | [4] > 100 µM | [5] > 100 µM | [6] > 100 µM | [7] > 100 µM | [8] > 100 µM | [9] > 100 µM | [10] > 100 µM | [11] > 100 µM | [12] > 100 µM | [13] > 100 µM | [14] > 100 µM | [15] > 100 µM | [16] > 100 µM | [17] > 100 µM | [18] > 100 µM

O=C1CSC(c2ccccc2O)N1c1ccc(-c2ccc(-n3c(-c4ccccc4)nc4ccccc4c3=O)cc2)cc1 (stereo not given)
inactive: [1] 28.1 µM | [2] 17.2 µM | [19] 24.9 µM | [3] 37.9 µM | [4] 50.1 µM | [5] 70 µM | [6] 27.6 µM | [7] 18.7 µM | [8] 31 µM | [9] 21.6 µM | [10] 33.5 µM | [11] 36.9 µM | [12] 37.6 µM | [13] 74 µM | [14] 13.3 µM | [15] 45.3 µM | [17] 16.1 µM | [18] 43.1 µM

Nc1nc2c(c(-c3ccc(F)cc3)n1)COC/C2=C\c1ccc(F)cc1
inactive: [1] 28.1 µM | [2] 12.7 µM | [19] 35.6 µM | [3] > 100 µM | [4] 45.6 µM | [5] > 100 µM | [6] 30.4 µM | [8] > 100 µM | [9] > 100 µM | [10] 41.2 µM | [11] > 100 µM | [12] 27.5 µM | [13] > 100 µM | [14] 15.8 µM | [15] 14.5 µM | [16] 55.6 µM | [17] 30.1 µM | [18] > 100 µM

CC1(O)C2(c3ccccc3)CCC[N+]1(C)CC2 (stereo not given)
inactive: [1] > 100 µM | [2] > 100 µM | [19] > 100 µM | [3] > 100 µM | [4] > 100 µM | [5] > 100 µM | [6] > 100 µM | [8] > 100 µM | [9] > 100 µM | [10] > 100 µM | [11] > 100 µM | [12] > 100 µM | [13] > 100 µM | [14] > 100 µM | [17] > 100 µM | [18] > 100 µM

Cc1nc2ccc(Br)cc2c(=O)n1-c1ccc(N)cc1
inactive: [1] > 100 µM | [2] > 100 µM | [19] > 100 µM | [3] > 100 µM | [4] > 100 µM | [5] > 100 µM | [6] > 100 µM | [7] > 100 µM | [8] > 100 µM | [9] > 100 µM | [10] > 100 µM | [11] > 100 µM | [12] > 100 µM | [13] > 100 µM | [14] > 100 µM | [15] > 100 µM | [16] > 100 µM | [17] > 100 µM | [18] > 100 µM

CCCCNC(=S)Nc1nc(C(=O)NNS(=O)(=O)c2ccccc2)cs1
inactive: [1] 42 µM | [2] 28.9 µM | [19] 49.1 µM | [4] 22.9 µM | [5] 45.2 µM | [6] 64.7 µM | [7] > 100 µM | [9] 17.9 µM | [10] 21.4 µM | [11] 29.4 µM | [12] > 10 µM | [13] 25.6 µM | [14] > 10 µM | [15] 27.8 µM | [16] 28.7 µM | [17] 36 µM | [18] 42 µM

CCN(C(=O)N[C@H](C(=O)N[C@@H](C)C(=O)OC)C(C)C)c1ccccc1
inactive: [1] 31 µM | [2] 20 µM | [19] 24 µM | [3] 33.1 µM | [4] 20 µM | [5] 46.3 µM | [6] 24 µM | [7] 27.3 µM | [8] 65 µM | [9] 20 µM | [10] 21.2 µM | [11] > 100 µM | [12] > 100 µM | [13] 33 µM | [14] 38.8 µM | [15] > 100 µM | [16] 45.2 µM | [17] 35.7 µM | [18] > 100 µM
